Measurements taken from ChEMBL document CHEMBL1201862, “PubChem BioAssay data set” (2004).
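Where inhibition never reached the appropriate level, the endpoint shown equals the highest concentration tested. Otherwise, values were interpolated linearly from a five-concentration, 48-hour dose response in 96-well plates. At the GI50, growth is halved.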 Active and inactive are the calls of the source. Cut-off read from the data, not from the text of the source: active = GI50 up to about 1.1 µM and inactive = higher.

Legend:
Assay in all cases: NCI tumour cell line growth inhibition, 48 h
[1] = tested on: M14
[2] = tested on: Malme-3M
[3] = tested on: ACHN
[4] = tested on: A498
[5] = tested on: IGROV-1
[6] = tested on: SK-MEL-5
[7] = tested on: SF-268
[8] = tested on: SR
[9] = tested on: OVCAR-4
[10] = tested on: PC-3
[11] = tested on: SNB-75
[12] = tested on: SNB-19
[13] = tested on: MDA-MB-231
[14] = tested on: NCI-H23
[15] = tested on: NCI-H460
[16] = tested on: EKVX
[17] = tested on: RXF 393
[18] = tested on: SK-OV-3
[19] = tested on: MOLT-4
[20] = tested on: NCI-H226
[21] = tested on: KM12
[22] = tested on: Hs-578T
[23] = tested on: T47D
[24] = tested on: SF-295
[25] = tested on: UACC-62
[26] = tested on: MCF7
[27] = tested on: CAKI-1
[28] = tested on: RPMI-8226
[29] = tested on: NCI/ADR-RES
[30] = tested on: OVCAR-8
[31] = tested on: UACC-257
[32] = tested on: U-251
[33] = tested on: UO-31
[34] = tested on: 786-0
[35] = tested on: SN12C
[36] = tested on: TK-10
[37] = tested on: OVCAR-3
[38] = tested on: HOP-92
[39] = tested on: MDA-MB-435
[40] = tested on: DU-145
[41] = tested on: HCC 2998
[42] = tested on: COLO 205
[43] = tested on: BT-549
[44] = tested on: A549
[45] = tested on: HOP-62
[46] = tested on: HT-29
[47] = tested on: SW-620
[48] = tested on: HCT-116
[49] = tested on: HCT-15
[50] = tested on: SK-MEL-28
[51] = tested on: CCRF-CEM
[52] = tested on: SK-MEL-2
[53] = tested on: OVCAR-5
[54] = tested on: K562
[55] = tested on: SF-539
[56] = tested on: HL-60
[57] = tested on: MDA-N
[58] = tested on: NCI-H522
[59] = tested on: LOX IMVI

Measured: GI50

COc1ccc2[nH]c(C(O)(Cc3cccnc3)Cc3cccnc3)cc2c1
inactive: [1] > 100 µM | [2] > 100 µM | [3] > 100 µM | [4] > 100 µM | [5] > 100 µM | [6] > 100 µM | [7] > 100 µM | [8] > 100 µM | [9] > 100 µM | [10] > 100 µM | [11] > 100 µM | [12] > 100 µM | [13] > 100 µM | [14] > 100 µM | [15] > 100 µM | [16] > 100 µM | [17] > 100 µM | [18] > 100 µM | [19] > 100 µM | [20] > 100 µM | [21] > 100 µM | [22] > 100 µM | [23] > 100 µM | [24] > 100 µM | [25] > 100 µM | [26] > 100 µM | [27] > 100 µM | [28] > 100 µM | [29] > 100 µM | [30] > 100 µM | [31] > 100 µM | [32] > 100 µM | [33] > 100 µM | [34] > 100 µM | [35] > 100 µM | [36] > 100 µM | [37] > 100 µM | [38] > 100 µM | [39] > 100 µM | [40] > 100 µM | [41] > 100 µM | [42] > 100 µM | [43] > 100 µM | [44] > 100 µM | [45] > 100 µM | [46] > 100 µM | [47] > 100 µM | [48] > 100 µM | [50] > 100 µM | [51] > 100 µM | [52] > 100 µM | [53] > 100 µM | [54] > 100 µM
> 100 µM: [49]

CCOC(=O)C(NC(=O)Nc1ccc(C)cc1)(OCC)C(F)(F)F (stereo unspecified)
inactive: [1] > 100 µM | [3] 56.5 µM | [4] 53.8 µM | [5] > 100 µM | [7] > 100 µM | [8] 88.9 µM | [11] > 100 µM | [12] > 100 µM | [14] > 100 µM | [17] > 100 µM | [18] > 100 µM | [19] > 100 µM | [22] 71.4 µM | [23] > 100 µM | [27] 1.18 µM | [28] > 100 µM | [29] 42.3 µM | [31] > 100 µM | [32] > 100 µM | [33] 54.1 µM | [55] > 100 µM | [34] > 100 µM | [56] 64.4 µM | [39] > 100 µM | [41] > 100 µM | [42] > 100 µM | [43] > 100 µM | [45] 26.5 µM | [46] > 100 µM | [48] > 100 µM | [50] > 100 µM | [51] > 100 µM | [52] > 100 µM | [53] > 100 µM | [54] > 100 µM

O=C(O)CCC(NC(=O)c1ccc(Nc2nc3ccccc3nc2C(=O)O)cc1)C(=O)O (stereo unspecified)
inactive: [1] > 100 µM | [2] > 100 µM | [3] > 100 µM | [5] > 100 µM | [6] > 100 µM | [7] > 100 µM | [8] > 100 µM | [9] > 100 µM | [11] > 100 µM | [12] > 100 µM | [13] > 100 µM | [14] > 100 µM | [16] > 100 µM | [18] > 100 µM | [19] > 100 µM | [21] > 100 µM | [22] > 100 µM | [23] > 100 µM | [24] > 100 µM | [25] > 100 µM | [26] > 100 µM | [27] > 100 µM | [57] > 100 µM | [28] > 100 µM | [58] > 100 µM | [29] > 100 µM | [30] > 100 µM | [31] > 100 µM | [32] > 100 µM | [33] > 100 µM | [55] > 100 µM | [34] > 100 µM | [35] > 100 µM | [56] > 100 µM | [36] > 100 µM | [37] > 100 µM | [38] > 100 µM | [39] > 100 µM | [40] > 100 µM | [41] > 100 µM | [42] > 100 µM | [43] > 100 µM | [44] > 100 µM | [45] > 100 µM | [46] > 100 µM | [48] > 100 µM | [50] > 100 µM | [51] > 100 µM | [52] > 100 µM | [53] > 100 µM | [54] > 100 µM

CC1=C(OC2OC(CO)C(O)C(O)C2O)C(=O)C[C@H]2C1=CC[C@@H]1[C@@]2(C)C(=O)C[C@]2(C)[C@@H]([C@@](C)(O)C(=O)CCC(C)(C)O)[C@H](O)C[C@@]12C (stereo partly specified)
inactive: [1] > 100 µM | [2] > 100 µM | [3] > 100 µM | [4] > 100 µM | [5] > 100 µM | [6] > 100 µM | [7] > 100 µM | [8] > 100 µM | [9] > 100 µM | [10] > 100 µM | [11] > 100 µM | [12] > 100 µM | [13] > 100 µM | [14] > 100 µM | [15] > 100 µM | [16] > 100 µM | [59] > 100 µM | [17] > 100 µM | [18] > 100 µM | [19] > 100 µM | [20] > 100 µM | [21] > 100 µM | [23] > 100 µM | [24] > 100 µM | [25] > 100 µM | [26] > 100 µM | [27] > 100 µM | [57] > 100 µM | [58] > 100 µM | [29] > 100 µM | [30] > 100 µM | [31] > 100 µM | [32] > 100 µM | [33] > 100 µM | [55] > 100 µM | [34] > 100 µM | [35] > 100 µM | [56] > 100 µM | [36] > 100 µM | [37] > 100 µM | [38] > 100 µM | [39] > 100 µM | [40] > 100 µM | [41] > 100 µM | [42] > 100 µM | [43] > 100 µM | [44] > 100 µM | [45] > 100 µM | [46] > 100 µM | [47] > 100 µM | [48] > 100 µM | [50] > 100 µM | [51] > 100 µM | [52] > 100 µM | [53] > 100 µM | [54] > 100 µM
> 100 µM: [49]

Cc1ccc(NC(Nc2ccc(C)cc2C)=C(C(Cl)=C(Cl)Cl)[N+](=O)[O-])c(C)c1
14.9 µM: [49]
inactive: [1] 5.36 µM | [2] 16.9 µM | [3] 15.2 µM | [4] 21.3 µM | [5] 14.1 µM | [6] 4.63 µM | [7] 17.3 µM | [8] 2.9 µM | [9] 15.7 µM | [10] 12.4 µM | [11] 9.35 µM | [12] 16.2 µM | [13] 15.5 µM | [14] 6.22 µM | [15] 13.9 µM | [16] 15.1 µM | [59] 5.83 µM | [17] 15.2 µM | [18] 20 µM | [19] 10.7 µM | [20] 14.6 µM | [21] 15.2 µM | [22] 22.8 µM | [23] 10.5 µM | [25] 14.2 µM | [26] 38.7 µM | [27] 20.6 µM | [28] 19.2 µM | [58] 11.1 µM | [29] 7.21 µM | [30] 16.2 µM | [31] 15.9 µM | [33] 13.7 µM | [55] 21.3 µM | [34] 16.1 µM | [35] 14.7 µM | [56] 4.12 µM | [36] 16.9 µM | [37] 15.4 µM | [38] 12.4 µM | [39] 4.89 µM | [40] 14.7 µM | [41] 18 µM | [42] 17.5 µM | [43] 14.2 µM | [44] 12.6 µM | [45] 16.9 µM | [46] 17.5 µM | [47] 16.8 µM | [48] 13.7 µM | [50] 19.9 µM | [51] 3.35 µM | [54] 9.53 µM
